Results: PubChem BioAssay AID2060331 (Molecular Pharmacology Branch, DTP, NCI, 2025)

Test system: Hs578T multi-cell spheroids, viability
Assay: Anticancer human tumor Hs578T cell line growth inhibition [IpAb];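 also: drug exposure lasted 7 days before readout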
Settings: for IC50: curve of first compound; for viability, T/C: stronger effect = lower value
Method in brief: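 Multi-cell spheroids of 60% tumour cells, 25% HUVEC and 15% MSC in ultra-low-attachment U-bottom wells, treated with agents combined with ipatasertib or abemaciclib. Half-log ranges top out near clinical Cmax, or 10 microM when Cmax is unknown.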

[1] = second compound 0.01 µM, first compound 0.00949 µM
[2] = second compound 0.01 µM, first compound 0.03 µM
[3] = second compound 0.01 µM, first compound 0.0949 µM
[4] = second compound 0.01 µM, first compound 0.3 µM
[5] = second compound 0.0316 µM, first compound 0.00949 µM
[6] = second compound 0.0316 µM, first compound 0.03 µM
[7] = second compound 0.0316 µM, first compound 0.0949 µM
[8] = second compound 0.0316 µM, first compound 0.3 µM
[9] = second compound 0.1 µM, first compound 0.00949 µM
[10] = second compound 0.1 µM, first compound 0.03 µM
[11] = second compound 0.1 µM, first compound 0.0949 µM
[12] = second compound 0.1 µM, first compound 0.3 µM
[13] = second compound 0.316 µM, first compound 0.00949 µM
[14] = second compound 0.316 µM, first compound 0.03 µM
[15] = second compound 0.316 µM, first compound 0.0949 µM
[16] = second compound 0.316 µM, first compound 0.3 µM
[17] = second compound 1 µM, first compound 0.00949 µM
[18] = second compound 1 µM, first compound 0.03 µM
[19] = second compound 1 µM, first compound 0.0949 µM
[20] = second compound 1 µM, first compound 0.3 µM
[21] = second compound 0.01 µM, first compound 0.0316 µM
[22] = second compound 0.01 µM, first compound 0.1 µM
[23] = second compound 0.01 µM, first compound 0.316 µM
[24] = second compound 0.01 µM, first compound 1 µM
[25] = second compound 0.0316 µM, first compound 0.0316 µM
[26] = second compound 0.0316 µM, first compound 0.1 µM
[27] = second compound 0.0316 µM, first compound 0.316 µM
[28] = second compound 0.0316 µM, first compound 1 µM
[29] = second compound 0.1 µM, first compound 0.0316 µM
[30] = second compound 0.1 µM, first compound 0.1 µM
[31] = second compound 0.1 µM, first compound 0.316 µM
[32] = second compound 0.1 µM, first compound 1 µM
[33] = second compound 0.316 µM, first compound 0.0316 µM
[34] = second compound 0.316 µM, first compound 0.1 µM
[35] = second compound 0.316 µM, first compound 0.316 µM
[36] = second compound 0.316 µM, first compound 1 µM
[37] = second compound 1 µM, first compound 0.0316 µM
[38] = second compound 1 µM, first compound 0.1 µM
[39] = second compound 1 µM, first compound 0.316 µM
[40] = second compound 1 µM, first compound 1 µM
[41] = second compound 0.01 µM, first compound 3.16 µM
[42] = second compound 0.01 µM, first compound 10 µM
[43] = second compound 0.0316 µM, first compound 3.16 µM
[44] = second compound 0.0316 µM, first compound 10 µM
[45] = second compound 0.1 µM, first compound 3.16 µM
[46] = second compound 0.1 µM, first compound 10 µM
[47] = second compound 0.316 µM, first compound 3.16 µM
[48] = second compound 0.316 µM, first compound 10 µM
[49] = second compound 1 µM, first compound 3.16 µM
[50] = second compound 1 µM, first compound 10 µM

CC(=O)c1c(C)c2cnc(Nc3ccc(N4CCNCC4)cn3)nc2n(C2CCCC2)c1=O + CCN1CCN(Cc2ccc(Nc3ncc(F)c(-c4cc(F)c5nc(C)n(C(C)C)c5c4)n3)nc2)CC1
IC50 (second compound 0.01 µM): > 300 nM | IC50 (second compound 0.0316 µM): > 300 nM | IC50 (second compound 0.1 µM): > 300 nM | IC50 (second compound 0.316 µM): > 300 nM | IC50 (second compound 1 µM): > 300 nM | viability, T/C (second compound 0.01 µM, first compound 0.000949 µM): 106% | viability, T/C (second compound 0.01 µM, first compound 0.003 µM): 95.1% | viability, T/C [1]: 95% | viability, T/C [2]: 81.9% | viability, T/C [3]: 77.5% | viability, T/C [4]: 63.4% | viability, T/C (second compound 0.0316 µM, first compound 0.000949 µM): 91.3% | viability, T/C (second compound 0.0316 µM, first compound 0.003 µM): 89.1% | viability, T/C [5]: 90.3% | viability, T/C [6]: 73.3% | viability, T/C [7]: 69.3% | viability, T/C [8]: 60.5% | viability, T/C (second compound 0.1 µM, first compound 0.000949 µM): 75.6% | viability, T/C (second compound 0.1 µM, first compound 0.003 µM): 80.8% | viability, T/C [9]: 81.8% | viability, T/C [10]: 80.8% | viability, T/C [11]: 66% | viability, T/C [12]: 73.3% | viability, T/C (second compound 0.316 µM, first compound 0.000949 µM): 81.3% | viability, T/C (second compound 0.316 µM, first compound 0.003 µM): 85.2% | viability, T/C [13]: 82.2% | viability, T/C [14]: 79.8% | viability, T/C [15]: 70.7% | viability, T/C [16]: 68% | viability, T/C (second compound 1 µM, first compound 0.000949 µM): 93% | viability, T/C (second compound 1 µM, first compound 0.003 µM): 98.5% | viability, T/C [17]: 93.7% | viability, T/C [18]: 96.7% | viability, T/C [19]: 89.5% | viability, T/C [20]: 89%

CC(C)(C)c1cnc(CSc2cnc(NC(=O)C3CCNCC3)s2)o1 + CCN1CCN(Cc2ccc(Nc3ncc(F)c(-c4cc(F)c5nc(C)n(C(C)C)c5c4)n3)nc2)CC1
IC50 (second compound 0.01 µM): 181 nM | IC50 (second compound 0.0316 µM): 181 nM | IC50 (second compound 0.1 µM): 167 nM | IC50 (second compound 0.316 µM): 169 nM | IC50 (second compound 1 µM): 115 nM | viability, T/C [1]: 101% | viability, T/C [2]: 114% | viability, T/C [3]: 114% | viability, T/C [4]: 3.69% | viability, T/C (second compound 0.01 µM, first compound 0.949 µM): 3.37% | viability, T/C (second compound 0.01 µM, first compound 3 µM): 3.55% | viability, T/C [5]: 99% | viability, T/C [6]: 113% | viability, T/C [7]: 118% | viability, T/C [8]: 2.94% | viability, T/C (second compound 0.0316 µM, first compound 0.949 µM): 2.55% | viability, T/C (second compound 0.0316 µM, first compound 3 µM): 2.82% | viability, T/C [9]: 100% | viability, T/C [10]: 99.9% | viability, T/C [11]: 95.3% | viability, T/C [12]: 2.53% | viability, T/C (second compound 0.1 µM, first compound 0.949 µM): 2.48% | viability, T/C (second compound 0.1 µM, first compound 3 µM): 3.11% | viability, T/C [13]: 104% | viability, T/C [14]: 104% | viability, T/C [15]: 97.2% | viability, T/C [16]: 2.46% | viability, T/C (second compound 0.316 µM, first compound 0.949 µM): 3.54% | viability, T/C (second compound 0.316 µM, first compound 3 µM): 3.59% | viability, T/C [17]: 109% | viability, T/C [18]: 107% | viability, T/C [19]: 59.6% | viability, T/C [20]: 2.32% | viability, T/C (second compound 1 µM, first compound 0.949 µM): 2.79% | viability, T/C (second compound 1 µM, first compound 3 µM): 4.16%

COc1c(OCCCN2CCOCC2)ccc2c3n(c(=NC(=O)c4cnc(N)nc4)nc12)CCN3 + CCN1CCN(Cc2ccc(Nc3ncc(F)c(-c4cc(F)c5nc(C)n(C(C)C)c5c4)n3)nc2)CC1
IC50 (second compound 0.01 µM): 22.8 nM | IC50 (second compound 0.0316 µM): 20.7 nM | IC50 (second compound 0.1 µM): 15.2 nM | IC50 (second compound 0.316 µM): 17.1 nM | IC50 (second compound 1 µM): 25.3 nM | viability, T/C (second compound 0.01 µM, first compound 0.00316 µM): 88.7% | viability, T/C (second compound 0.01 µM, first compound 0.01 µM): 65.9% | viability, T/C [21]: 43.3% | viability, T/C [22]: 26.9% | viability, T/C [23]: 16% | viability, T/C [24]: 8.09% | viability, T/C (second compound 0.0316 µM, first compound 0.00316 µM): 75.6% | viability, T/C (second compound 0.0316 µM, first compound 0.01 µM): 63.6% | viability, T/C [25]: 40.5% | viability, T/C [26]: 28% | viability, T/C [27]: 11.6% | viability, T/C [28]: 7.23% | viability, T/C (second compound 0.1 µM, first compound 0.00316 µM): 75.8% | viability, T/C (second compound 0.1 µM, first compound 0.01 µM): 53.5% | viability, T/C [29]: 40.9% | viability, T/C [30]: 26.8% | viability, T/C [31]: 13.8% | viability, T/C [32]: 6.99% | viability, T/C (second compound 0.316 µM, first compound 0.00316 µM): 82.1% | viability, T/C (second compound 0.316 µM, first compound 0.01 µM): 55.8% | viability, T/C [33]: 42.1% | viability, T/C [34]: 26.1% | viability, T/C [35]: 15.5% | viability, T/C [36]: 7.2% | viability, T/C (second compound 1 µM, first compound 0.00316 µM): 91.5% | viability, T/C (second compound 1 µM, first compound 0.01 µM): 67.4% | viability, T/C [37]: 43.1% | viability, T/C [38]: 32.5% | viability, T/C [39]: 20.1% | viability, T/C [40]: 9.99%

Cc1nc(NC(=O)N2CCCC2C(N)=O)sc1-c1ccnc(C(C)(C)C(F)(F)F)c1 (stereo not given) + CCN1CCN(Cc2ccc(Nc3ncc(F)c(-c4cc(F)c5nc(C)n(C(C)C)c5c4)n3)nc2)CC1
IC50 (second compound 0.01 µM): 1780 nM | IC50 (second compound 0.0316 µM): 856 nM | IC50 (second compound 0.1 µM): 804 nM | IC50 (second compound 0.316 µM): 1070 nM | IC50 (second compound 1 µM): 1230 nM | viability, T/C [21]: 98.5% | viability, T/C [22]: 87.2% | viability, T/C [23]: 75.9% | viability, T/C [24]: 61.1% | viability, T/C [41]: 40.4% | viability, T/C [42]: 11.9% | viability, T/C [25]: 88.5% | viability, T/C [26]: 72.3% | viability, T/C [27]: 57.2% | viability, T/C [28]: 51.2% | viability, T/C [43]: 38.7% | viability, T/C [44]: 11.7% | viability, T/C [29]: 77% | viability, T/C [30]: 68.4% | viability, T/C [31]: 60.6% | viability, T/C [32]: 43.9% | viability, T/C [45]: 37.3% | viability, T/C [46]: 11.4% | viability, T/C [33]: 68.5% | viability, T/C [34]: 66.7% | viability, T/C [35]: 60.4% | viability, T/C [36]: 47.7% | viability, T/C [47]: 39.8% | viability, T/C [48]: 17% | viability, T/C [37]: 92.1% | viability, T/C [38]: 83.3% | viability, T/C [39]: 66.7% | viability, T/C [40]: 56.5% | viability, T/C [49]: 34% | viability, T/C [50]: 23.5%

Cn1nccc1Nc1nccc(-c2ccn(C(CO)c3ccc(Cl)c(F)c3)c(=O)c2)n1 (stereo not given) + CCN1CCN(Cc2ccc(Nc3ncc(F)c(-c4cc(F)c5nc(C)n(C(C)C)c5c4)n3)nc2)CC1
IC50 (second compound 0.01 µM): 5690 nM | IC50 (second compound 0.0316 µM): 4080 nM | IC50 (second compound 0.1 µM): 3490 nM | IC50 (second compound 0.316 µM): 6160 nM | IC50 (second compound 1 µM): 2060 nM | viability, T/C [21]: 100% | viability, T/C [22]: 109% | viability, T/C [23]: 110% | viability, T/C [24]: 88.8% | viability, T/C [41]: 64.1% | viability, T/C [42]: 37.3% | viability, T/C [25]: 92.2% | viability, T/C [26]: 99.8% | viability, T/C [27]: 96.3% | viability, T/C [28]: 73.5% | viability, T/C [43]: 61.6% | viability, T/C [44]: 18.1% | viability, T/C [29]: 79.2% | viability, T/C [30]: 86.7% | viability, T/C [31]: 88.6% | viability, T/C [32]: 59.6% | viability, T/C [45]: 56.5% | viability, T/C [46]: 27.6% | viability, T/C [33]: 79% | viability, T/C [34]: 86.3% | viability, T/C [35]: 86% | viability, T/C [36]: 71.3% | viability, T/C [47]: 63.8% | viability, T/C [48]: 40.2% | viability, T/C [37]: 81.8% | viability, T/C [38]: 79.7% | viability, T/C [39]: 85.5% | viability, T/C [40]: 58.8% | viability, T/C [49]: 50.4% | viability, T/C [50]: 39.2%
